5 molecules from paper PMC3104040 (Bioorganic & medicinal chemistry, 2011) can be followed below.

Data set [1] has as its system Vaccinia virus (Copenhagen). As to the kind of experiment: microbe, parasite or virus in culture. The settings on record: Orthopoxvirus vaccinia, HFF, read-out: Vaccinia EC50. It is filed as cell-based.
Data set [2] has as its system ECTV-Moscow strain. As to the kind of experiment: organism not typed. Type of data set: cell-based, Ectromelia.
The subject of data set [3] is cowpox virus (Brighton). Put plainly: organism not typed. Type of data set: cell-based. The settings on record: HFF, read-out: EC50 in cells infected with cowpox or vaccinia virus.

Take `CCCCCCCCCCCCCCCCOCCCOP(=O)(O)CO[C@H](CO)Cn1ccc(N)nc1=O` [HDP-CDV, hexadecyloxypropyl-cidofovir]: the EC50 in data set [1] was found to be 80 ± 30 nM.

With `C=CCCCCCCCCCCCCCCOCCOP(=O)(O)CO[C@H](CO)Cn1cnc2c(N)ncnc21` [HDNE-(S)-HPMPA, ω-hexadecenyloxyethyl-(S)-HPMPA], the “Ectromelia S.I. (selective index)” value in data set [2] came out at 7. Further, the EC50 in data set [2] (BSC-1, read-out: antiviral activity (EC50), virus not specified) lay in the range of 300 to 740 nM.

In the case of `CCCCCCCCCCCCCCCCCCOC[C@@H](COP(=O)(O)CO[C@H](CO)Cn1ccc(N)nc1=O)OCc1ccccc1` [ODBG-CDV, 1-O-octadecyl-2-O-benzyl-sn-glyceryl-3-cidofovir], the “% compound remaining, Human S9” value (s9, 1.5 h) is on record as 91-92%.

`CCCCCCCCCCCCCCCCOCCCOP(=O)(O)CO[C@H](CO)Cn1cnc2c(N)ncnc21` [HDP-(S)-HPMPA, hexadecyloxypropyl-(S)-HPMPA]: the “% intact compound, human liver S9” value is 92-93%.

For `CC(C)CCCCCCCCCCCOCCCOP(=O)(O)CO[C@H](CO)Cn1ccc(N)nc1=O` [Compound 12M-TRDP-CDV, 12-methyl-tridecyloxypropyl-cidofovir], in data set [3], the EC50 was in the range of 800 to 1000 nM.

As a reminder, the EC50 is the concentration at which the effect is half-maximal.
